Experimental data reported in PubChem BioAssay AID248 (DTP/NCI, 2004).
“And” between values parts separate entries of the source, which are not always exact repeats. Identical values can stand only once. Toxic doses and inconclusive results are not listed. Cut-off read from the data, not from the text of the source: active = T/C of 150% or more; inactive = T/C below 125%. Square brackets hold non-standard residues; d marks the D form. Peptide text beside a SMILES is read from it. * marks the point of attachment. ξ: configuration not given here. Cbz = O=C(OCc1ccccc1)*; ξI = CCC(C)C(N)C(=O)O

Tested on: L1210 leukemia ip in BDF1 mice, survival T/C
Assay: NCI In Vivo Anticancer Drug Screen. Data for tumor model L1210 Leukemia (intraperitoneal) in B6D2F1 (BDF1) mice
Conditions: endpoint: mean survival time, higher = longer survival
Method in brief: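 Ratio derived from survival: compound-dosed mice over vehicle-dosed mice, all bearing a transplantable tumor.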

[1] = dose: 100.0 mg/kg/injection, schedule: Q01DX009 (ip), vehicle: saline with Tween-80
[2] = dose: 100.0 mg/kg/injection, schedule: Q04DX003 (ip), vehicle: saline sonified
[3] = dose: 200.0 mg/kg/injection, schedule: Q01DX009 (ip), vehicle: saline with Tween-80
[4] = dose: 200.0 mg/kg/injection, schedule: Q04DX003 (ip), vehicle: saline sonified
[5] = dose: 400.0 mg/kg/injection, schedule: Q04DX003 (ip), vehicle: saline sonified
[6] = dose: 100.0 mg/kg/injection, schedule: Q01DX001 (ip), vehicle: saline with Tween-80
[7] = dose: 200.0 mg/kg/injection, schedule: Q01DX001 (ip), vehicle: saline with Tween-80
[8] = dose: 50.0 mg/kg/injection, schedule: Q01DX009 (ip), vehicle: saline with Tween-80
[9] = dose: 100.0 mg/kg/injection, schedule: Q04DX002 (ip), vehicle: saline with Tween-80
[10] = dose: 200.0 mg/kg/injection, schedule: Q04DX002 (ip), vehicle: saline with Tween-80
[11] = dose: 400.0 mg/kg/injection, schedule: Q04DX002 (ip), vehicle: saline with Tween-80
[12] = dose: 100.0 mg/kg/injection, schedule: Q04DX003 (ip), vehicle: saline
[13] = dose: 200.0 mg/kg/injection, schedule: Q04DX003 (ip), vehicle: saline
[14] = dose: 400.0 mg/kg/injection, schedule: Q04DX003 (ip), vehicle: saline
[15] = dose: 100.0 mg/kg/injection, schedule: Q04DX003 (ip), vehicle: saline with Tween-80
[16] = dose: 200.0 mg/kg/injection, schedule: Q04DX003 (ip), vehicle: saline with Tween-80
[17] = dose: 100.0 mg/kg/injection, schedule: Q01DX009 (ip), vehicle: Klucel (hydroxypropylcellulose) (HPC)
[18] = dose: 200.0 mg/kg/injection, schedule: Q01DX009 (ip), vehicle: Klucel (hydroxypropylcellulose) (HPC)
[19] = dose: 400.0 mg/kg/injection, schedule: Q01DX009 (ip), vehicle: Klucel (hydroxypropylcellulose) (HPC)
[20] = dose: 100.0 mg/kg/injection, schedule: Q01DX001 (ip), vehicle: saline
[21] = dose: 100.0 mg/kg/injection, schedule: Q01DX009 (ip), vehicle: saline
[22] = dose: 200.0 mg/kg/injection, schedule: Q01DX001 (ip), vehicle: saline
[23] = dose: 200.0 mg/kg/injection, schedule: Q01DX009 (ip), vehicle: saline
[24] = dose: 400.0 mg/kg/injection, schedule: Q01DX001 (ip), vehicle: saline

Measured: T/C

CC(C)=CCC(N)CC=C(C)C
inactive: dose: 12.5 mg/kg/injection, schedule: Q01DX009 (ip), vehicle: Klucel (hydroxypropylcellulose) (HPC) 91 % of control | dose: 25.0 mg/kg/injection, schedule: Q01DX009 (ip), vehicle: Klucel (hydroxypropylcellulose) (HPC) 102 % of control | dose: 25.0 mg/kg/injection, schedule: Q04DX002 (ip), vehicle: Klucel (hydroxypropylcellulose) (HPC) 112 % of control | dose: 50.0 mg/kg/injection, schedule: Q01DX009 (ip), vehicle: Klucel (hydroxypropylcellulose) (HPC) 106 % of control | dose: 50.0 mg/kg/injection, schedule: Q04DX002 (ip), vehicle: Klucel (hydroxypropylcellulose) (HPC) 105 % of control

COc1ccc2c(c1)CC(=CO)CC2=O.COc1ccc2c(c1)CC/C(=C/O)C2=O.[Cu]
inactive: [1] 98 % of control | [2] 101 % of control | [3] 110 % of control | [4] 90 % of control | [5] 104 % of control

CCCCSc1nc(NC(C)C)nc(NC(C)C)n1
inactive: dose: 100.0 mg/kg/injection, schedule: Q04DX002 (sc), vehicle: olive oil, sesame oil, peanut oil 118 % of control | dose: 200.0 mg/kg/injection, schedule: Q04DX002 (sc), vehicle: olive oil, sesame oil, peanut oil 115 % of control | dose: 400.0 mg/kg/injection, schedule: Q04DX002 (sc), vehicle: olive oil, sesame oil, peanut oil 101 % of control

O=C(NCCCl)Nc1ccc(C(=O)O)c(O)c1
inactive: dose: 80.0 mg/kg/injection, schedule: Q04DX002 (ip), vehicle: Klucel (hydroxypropylcellulose) (HPC) 98 % of control | dose: 160.0 mg/kg/injection, schedule: Q04DX002 (ip), vehicle: Klucel (hydroxypropylcellulose) (HPC) 88 % of control | dose: 320.0 mg/kg/injection, schedule: Q04DX002 (ip), vehicle: Klucel (hydroxypropylcellulose) (HPC) 91 % of control

CCCCCSc1nccc(N)n1
inactive: [6] 97 % of control | [7] 103 % of control

C[N+](C)(CC(=O)Nc1ccc(Cl)c(C(F)(F)F)c1)CC(=O)c1ccc(Cl)c(Cl)c1
inactive: [2] 97 % of control | [4] 111 % of control | [5] 100 % of control

COc1ccc(CC(=O)N(CCNS(=O)(=O)c2ccc(C)cc2)CCOC(C)=O)cc1
inactive: dose: 100.0 mg/kg/injection, schedule: Q01DX001 (ip), vehicle: water 104 % of control | dose: 200.0 mg/kg/injection, schedule: Q01DX001 (ip), vehicle: water 107 % of control | dose: 400.0 mg/kg/injection, schedule: Q01DX001 (ip), vehicle: water 96 % of control

CC1C(=O)C2(C)C3(C)C(=O)C(C)(C(c4ccccc4)=C3c3ccccc3)C2(c2ccccc2)C1c1ccccc1 (stereo unspecified) (tested in a mixture with another compound)
inactive: [8] 98 % of control | [1] 95 % of control | [3] 95 % of control

CCCCCCCCCCCCNc1ccc(S(=O)(=O)c2ccc(N)cc2)cc1
inactive: [9] 100 % of control | [10] 97 % of control | [11] 103 % of control

O=C1NC(Cc2ccccc2)C(=O)O1 (stereo unspecified)
inactive: [12] 100 % of control | [13] 91 % of control | [14] 93 % of control

O=C(CCc1ccccc1)c1ccccc1
inactive: [9] 97 % of control | [10] 97 % of control | [11] 90 % of control

CCC(C)C(NC(=O)CNC(=O)OCc1ccccc1)C(=O)O (stereo not drawn) (Cbz-Gly-[ξI]-OH)
inactive: [15] 107 % of control | [16] 97 % of control | dose: 400.0 mg/kg/injection, schedule: Q04DX003 (ip), vehicle: saline with Tween-80 98 % of control

CCOC(=O)C1(C(=O)OCC)C2CC(C)=C(C)CC21 (stereo unspecified)
inactive: dose: 50.0 mg/kg/injection, schedule: Q01DX009 (ip), vehicle: acetone 92 % of control | dose: 100.0 mg/kg/injection, schedule: Q01DX009 (ip), vehicle: acetone 90 % of control

Cc1ccc(NC(=O)/C=C\C(=O)O)cc1
inactive: [17] 103 % of control | dose: 100.0 mg/kg/injection, schedule: Q04DX003 (ip), vehicle: Klucel (hydroxypropylcellulose) (HPC) 97 % of control | [18] 108 % of control | dose: 200.0 mg/kg/injection, schedule: Q04DX003 (ip), vehicle: Klucel (hydroxypropylcellulose) (HPC) 96 % of control | [19] 91 % of control | dose: 400.0 mg/kg/injection, schedule: Q04DX003 (ip), vehicle: Klucel (hydroxypropylcellulose) (HPC) 91 % of control

CC(=O)OC1/C(=C/c2ccco2)CCC2CCCCC21C (stereo unspecified)
inactive: dose: 50.0 mg/kg/injection, schedule: Q01DX009 (ip), vehicle: saline 96 % of control | [20] 91 % of control | [21] 103 % of control | [22] 88 % of control | [23] 108 % of control | [24] 93 % of control

OCCOc1c(Cl)c(Cl)c(Cl)c(Cl)c1Cl
inactive: [8] 101 % of control | [1] 94 % of control | [15] 102 % of control | [3] 103 % of control | [16] 97 % of control

C[C@]12CC[C@@H]3c4ccc(O)cc4CC[C@H]3[C@@H]1CC[C@@H]2OC(=O)CCC1CCCC1
inactive: dose: 60.0 mg/kg/injection, schedule: Q04DX003 (sc), vehicle: steriod suspending solution 104 % of control | dose: 100.0 mg/kg/injection, schedule: Q01DX001 (sc), vehicle: steriod suspending solution 107 % of control | dose: 120.0 mg/kg/injection, schedule: Q04DX003 (sc), vehicle: steriod suspending solution 104 % of control | dose: 200.0 mg/kg/injection, schedule: Q01DX001 (sc), vehicle: steriod suspending solution 113 % of control | dose: 240.0 mg/kg/injection, schedule: Q04DX003 (sc), vehicle: steriod suspending solution 100 % of control | dose: 400.0 mg/kg/injection, schedule: Q01DX001 (sc), vehicle: steriod suspending solution 107 % of control

CC(=O)ONC(=O)C(N)=O
inactive: dose: 50.0 mg/kg/injection, schedule: Q01DX001 (ip), vehicle: saline 95 % of control | [20] 101 % of control | [22] 95 % of control | [24] 103 % of control

C(=N\N1CCN(/N=C/c2ccc3ccccc3n2)CC1)/c1ccc2ccccc2n1
inactive: dose: 100.0 mg/kg/injection, schedule: Q01DX001 (ip), vehicle: carboxymethylcellulose (CMC) 89 % of control | dose: 200.0 mg/kg/injection, schedule: Q01DX001 (ip), vehicle: carboxymethylcellulose (CMC) 86 % of control | dose: 400.0 mg/kg/injection, schedule: Q01DX001 (ip), vehicle: carboxymethylcellulose (CMC) 94 % of control

C/C=[N+](/[O-])CC
inactive: [21] 102 % of control | [12] 102 % of control | [23] 101 % of control | [13] 105 % of control | dose: 400.0 mg/kg/injection, schedule: Q01DX009 (ip), vehicle: saline 101 % of control | [14] 110 % of control

O=C(NC(=S)Nc1cccc(C(F)(F)F)c1)c1cc([N+](=O)[O-])cc([N+](=O)[O-])c1
inactive: [6] 93 % of control | [1] 89 % of control | [9] 101 % of control | [7] 98 % of control | [3] 87 % of control and 89 % of control | [10] 94 % of control | [11] 97 % of control

C=CC/C(=C/CCC)CCC
inactive: [8] 95 % of control | [1] 100 % of control | [3] 100 % of control

Cc1cccc(Cl)c1NC(=O)Nc1ccc(CCO)cc1
inactive: [17] 103 % of control | [18] 97 % of control | [19] 94 % of control

C=C(C/C(=C/S(C)=O)c1ccccc1)c1ccccc1 (stereo unspecified)
inactive: dose: 75.0 mg/kg/injection, schedule: Q01DX001 (ip), vehicle: saline 97 % of control | dose: 150.0 mg/kg/injection, schedule: Q01DX001 (ip), vehicle: saline 96 % of control | dose: 300.0 mg/kg/injection, schedule: Q01DX001 (ip), vehicle: saline 91 % of control

S=C(NNc1ccccc1)Nc1ccccc1
inactive: dose: 100.0 mg/kg/injection, schedule: Q01DX001 (ip), vehicle: Klucel (hydroxypropylcellulose) (HPC) 93 % of control | dose: 200.0 mg/kg/injection, schedule: Q01DX001 (ip), vehicle: Klucel (hydroxypropylcellulose) (HPC) 103 % of control | dose: 400.0 mg/kg/injection, schedule: Q01DX001 (ip), vehicle: Klucel (hydroxypropylcellulose) (HPC) 95 % of control
